Tested on: KRAS patient-derived spheroids with HUVEC/MSC, viability
Assay: Anticancer human tumor 941728-121-R-J1-PDC patient-derived lung adenocarcinoma cell line growth inhibition [KRAS2]
Details: for IC50: curve of first compound; for viability, T/C: stronger effect = lower value; active = viability on the fitted dose curve at most 10% of control; inactive = the rest
How it was run: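 Combination screen of spheroid viability in tumor-cell co-cultures with endothelial (HUVEC) and mesenchymal stem cell stroma. Each agent was tested in half-log dilutions, topping at clinical Cmax or at 10 microM without a known Cmax.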

[1] = second compound 0.1 µM, first compound 0.0316 µM
[2] = second compound 0.1 µM, first compound 0.1 µM
[3] = second compound 0.1 µM, first compound 0.316 µM
[4] = second compound 0.1 µM, first compound 1 µM
[5] = second compound 0.1 µM, first compound 3.16 µM
[6] = second compound 0.1 µM, first compound 10 µM
[7] = second compound 0.316 µM, first compound 0.0316 µM
[8] = second compound 0.316 µM, first compound 0.1 µM
[9] = second compound 0.316 µM, first compound 0.316 µM
[10] = second compound 0.316 µM, first compound 1 µM
[11] = second compound 0.316 µM, first compound 3.16 µM
[12] = second compound 0.316 µM, first compound 10 µM
[13] = second compound 1 µM, first compound 0.0316 µM
[14] = second compound 1 µM, first compound 0.1 µM
[15] = second compound 1 µM, first compound 0.316 µM
[16] = second compound 1 µM, first compound 1 µM
[17] = second compound 1 µM, first compound 3.16 µM
[18] = second compound 1 µM, first compound 10 µM
[19] = second compound 3.16 µM, first compound 0.0316 µM
[20] = second compound 3.16 µM, first compound 0.1 µM
[21] = second compound 3.16 µM, first compound 0.316 µM
[22] = second compound 3.16 µM, first compound 1 µM
[23] = second compound 3.16 µM, first compound 3.16 µM
[24] = second compound 3.16 µM, first compound 10 µM
[25] = second compound 10 µM, first compound 0.0316 µM
[26] = second compound 10 µM, first compound 0.1 µM
[27] = second compound 10 µM, first compound 0.316 µM
[28] = second compound 10 µM, first compound 1 µM
[29] = second compound 10 µM, first compound 3.16 µM
[30] = second compound 10 µM, first compound 10 µM
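Also: spheroids exposed to agents for seven days before readout.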

O=C(c1cc(Cc2n[nH]c(=O)c3ccccc23)ccc1F)N1CCN(C(=O)C2CC2)CC1 + COc1cc2nc(C)nc(NC(C)c3cc(N)cc(C(F)(F)F)c3)c2cc1OC1CCOC1
46.7 nM: IC50 (second compound 10 µM)
inactive: viability, T/C [1] 60% | viability, T/C [2] 105% | viability, T/C [3] 59.7% | viability, T/C [4] 93.4% | viability, T/C [5] 120% | viability, T/C [6] 79.2% | viability, T/C [7] 54.1% | viability, T/C [8] 57.4% | viability, T/C [9] 55.9% | viability, T/C [10] 56.9% | viability, T/C [11] 64.4% | viability, T/C [12] 66.2% | viability, T/C [13] 103% | viability, T/C [14] 114% | viability, T/C [15] 126% | viability, T/C [16] 124% | viability, T/C [17] 103% | viability, T/C [18] 100% | viability, T/C [19] 47.7% | viability, T/C [20] 50.5% | viability, T/C [21] 49% | viability, T/C [22] 59.8% | viability, T/C [23] 56.9% | viability, T/C [24] 54.9% | viability, T/C [25] 60.5% | viability, T/C [26] 29.5% | viability, T/C [27] 26.1% | viability, T/C [28] 33.6% | viability, T/C [29] 20.9% | viability, T/C [30] 27.6%
> 10000 nM: IC50 (second compound 0.1 µM) | IC50 (second compound 0.316 µM) | IC50 (second compound 1 µM)
< 31.6 nM: IC50 (second compound 3.16 µM)

CCNC(=O)CC1N=C(c2ccc(Cl)cc2)c2cc(OC)ccc2-n2c(C)nnc21 (stereo not given) + CC1OCC2(CCN(c3cnc(Sc4ccnc(N)c4Cl)c(N)n3)CC2)C1N
inactive: viability, T/C [1] 45.2% | viability, T/C [2] 44% | viability, T/C [3] 31.5% | viability, T/C [4] 24.1% | viability, T/C [5] 21% | viability, T/C [6] 22.4% | viability, T/C [7] 37.2% | viability, T/C [8] 32.5% | viability, T/C [9] 25.5% | viability, T/C [10] 17.2% | viability, T/C [11] 14.8% | viability, T/C [12] 16.2% | viability, T/C [13] 32.3% | viability, T/C [14] 27.5% | viability, T/C [15] 30.4% | viability, T/C [16] 13.2% | viability, T/C [17] 10.3% | viability, T/C [19] 25.7% | viability, T/C [20] 20.9% | viability, T/C [21] 17.8% | viability, T/C [22] 10.3% | viability, T/C [25] 22.3% | viability, T/C [26] 19.1% | viability, T/C [27] 12%
active: viability, T/C [18] 8.97% | viability, T/C [23] 8.12% | viability, T/C [24] 6.43% | viability, T/C [28] 6.42% | viability, T/C [29] 4.77% | viability, T/C [30] 4.55%
< 31.6 nM: IC50 (second compound 0.1 µM) | IC50 (second compound 0.316 µM) | IC50 (second compound 1 µM) | IC50 (second compound 3.16 µM) | IC50 (second compound 10 µM)

CC(C)NCC(C(=O)N1CCN(c2ncnc3c2C(C)CC3O)CC1)c1ccc(Cl)cc1 (stereo not given) + COc1cc2nc(C)nc(NC(C)c3cc(N)cc(C(F)(F)F)c3)c2cc1OC1CCOC1
inactive: viability, T/C [1] 49.7% | viability, T/C [2] 46.5% | viability, T/C [3] 34.1% | viability, T/C [4] 23.4% | viability, T/C [5] 11.8% | viability, T/C [7] 44% | viability, T/C [8] 41.4% | viability, T/C [9] 32.5% | viability, T/C [10] 21.5% | viability, T/C [11] 10.3% | viability, T/C [13] 40.4% | viability, T/C [14] 34.8% | viability, T/C [15] 29.7% | viability, T/C [16] 23.1% | viability, T/C [17] 10.3% | viability, T/C [19] 35.1% | viability, T/C [20] 35.2% | viability, T/C [21] 36.7% | viability, T/C [22] 13% | viability, T/C [25] 13.4%
active: viability, T/C [6] 8.21% | viability, T/C [12] 11.1% | viability, T/C [18] 1.68% | viability, T/C [23] 5.96% | viability, T/C [24] 5.42% | viability, T/C [26] 9.39% | viability, T/C [27] 3.04% | viability, T/C [28] 1.04% | viability, T/C [29] 0.52% | viability, T/C [30] 0.66%
32.7 nM: IC50 (second compound 0.1 µM)
< 31.6 nM: IC50 (second compound 0.316 µM) | IC50 (second compound 1 µM) | IC50 (second compound 3.16 µM) | IC50 (second compound 10 µM)

Cn1ncnc1[C@H]1c2n[nH]c(=O)c3cc(F)cc(c23)N[C@@H]1c1ccc(F)cc1 + C=CC(=O)N1CCN(c2nc(OCC3CCCN3C)nc3c2CCN(c2cccc4cccc(C)c24)C3)CC1CC#N
active: viability, T/C (second compound 3.16 µM, first compound 0.000316 µM) 0.11% | viability, T/C (second compound 3.16 µM, first compound 0.001 µM) 0.2% | viability, T/C (second compound 3.16 µM, first compound 0.00316 µM) 0.09% | viability, T/C (second compound 3.16 µM, first compound 0.01 µM) 0.11% | viability, T/C [19] 0.16% | viability, T/C [20] 0.23%
< 0.316 nM: IC50 (second compound 0.0316 µM) | IC50 (second compound 0.1 µM) | IC50 (second compound 0.316 µM) | IC50 (second compound 1 µM) | IC50 (second compound 3.16 µM)
inactive: viability, T/C (second compound 0.0316 µM, first compound 0.000316 µM) 24.6% | viability, T/C (second compound 0.0316 µM, first compound 0.001 µM) 23.2% | viability, T/C (second compound 0.0316 µM, first compound 0.00316 µM) 19.4% | viability, T/C (second compound 0.0316 µM, first compound 0.01 µM) 19.7% | viability, T/C (second compound 0.0316 µM, first compound 0.0316 µM) 17.4% | viability, T/C (second compound 0.0316 µM, first compound 0.1 µM) 17.5% | viability, T/C (second compound 0.1 µM, first compound 0.000316 µM) 18.3% | viability, T/C (second compound 0.1 µM, first compound 0.001 µM) 18.2% | viability, T/C (second compound 0.1 µM, first compound 0.00316 µM) 19.9% | viability, T/C (second compound 0.1 µM, first compound 0.01 µM) 17.6% | viability, T/C [1] 17.3% | viability, T/C [2] 15.8% | viability, T/C (second compound 0.316 µM, first compound 0.000316 µM) 18.2% | viability, T/C (second compound 0.316 µM, first compound 0.001 µM) 18.9% | viability, T/C (second compound 0.316 µM, first compound 0.00316 µM) 17.9% | viability, T/C (second compound 0.316 µM, first compound 0.01 µM) 16.2% | viability, T/C [7] 16% | viability, T/C [8] 17.1% | viability, T/C (second compound 1 µM, first compound 0.000316 µM) 17.6% | viability, T/C (second compound 1 µM, first compound 0.001 µM) 17.5% | viability, T/C (second compound 1 µM, first compound 0.00316 µM) 13.5% | viability, T/C (second compound 1 µM, first compound 0.01 µM) 18.3% | viability, T/C [13] 15.5% | viability, T/C [14] 14.2%
